Source: PubChem BioAssay AID449750 (Broad Institute, 2010)
Activity calls are given as the source filed them. How the calls were made is not given here.

test: non-covalent RecA intein splicing inhibitors, dose response, biochemical, cell-free, fluorescence, secondary screen (AID 449750)

| SMILES | AC50 |
| --- | --- |
| O=C(Oc1ccc(N2C(=O)CCC2=O)cc1)c1ccco1 | 0.433 µM |
| CC1=NNC(=O)C1Cc1ccccc1 (stereo not drawn) | > 38 µM (inactive) |
| O=C(NC1CCCC1)C(c1ccc(F)cc1)N(Cc1ccc(F)cc1)C(=O)CCl (stereo not drawn) | 2.96 µM |
| Cc1ccc(N(NC(=O)C(O)(c2ccccc2)c2ccccc2)C(=O)CCl)cc1 | 1.57 µM |
| ClCc1nnc(-c2cc3c(s2)CCCC3)o1 | > 38 µM (inactive) |
| Cc1ccccc1-c1nc(CN(C)C(C)c2ccon2)c(C)o1 (stereo not drawn) | > 38 µM (inactive) |
| CCN(CC)c1ccc(/C=C2\C(=O)N(c3nnc(C)c(=O)[nH]3)N=C2C)cc1 | 5.67 µM |
| COC(=O)Cc1[nH]nc2c1C(c1c[nH]c3ccccc13)C(C#N)=C(N)O2 (stereo not drawn) | > 38 µM (inactive) |
| COc1nc(N/N=C/c2ccc(-c3ccccc3[N+](=O)[O-])o2)nc(N2CCOCC2)n1 | 23.2 µM |
| COc1ccc(Nc2cnn(-c3nc4ccccc4s3)c(=O)c2Cl)cc1 | > 38 µM (inactive) |
| NS(=O)(=O)c1ccc(N=Cc2c(O)c3ccccc3oc2=O)cc1 | > 38 µM (inactive) |
| COc1ccc2c(c1)C(=C(C#N)C#N)C(=O)N2CCc1ccccc1 | > 38 µM (inactive) |
| Nc1ccc2nc[nH]c2c1 | 10.6 µM |
| COC(=O)c1ccc(-n2c(C)cc(C(=O)CCl)c2C)cc1 | 17.8 µM |
| O=c1cc(C23CC4CC(CC(C4)C2)C3)[nH][nH]1 | > 38 µM (inactive) |
| O=[N+]([O-])c1ccc(S(=O)(=O)c2cccc(C(F)(F)F)c2)nc1 | > 38 µM (inactive) |
| Cc1[nH]nc2c1C(c1ccc(OC(=O)c3ccco3)cc1)C(C#N)=C(N)O2 (stereo not drawn) | > 38 µM (inactive) |
| CCOC(=O)C1CCN(Cc2cc(C(C)C)c(O)c(C(C)C)c2)CC1 | > 38 µM (inactive) |
| O=C(/C=C/c1ccco1)c1ccc(NC(=O)C23CC4CC(CC(C4)C2)C3)cc1 | 12.9 µM |
| O=C(NN=c1c(=O)c2ccccc2c1=O)c1ccccc1 | 8.96 µM |
| CCCC(=O)N(C1CC(C)C(C#N)(C#N)C1(C#N)C#N)N(C)C (stereo not drawn) | > 38 µM (inactive) |
| O=S(=O)(CCSc1ccccn1)c1nc2ccccc2s1 | > 38 µM (inactive) |
| O=C(CCl)N1N=C(c2ccco2)CC1c1ccco1 (stereo not drawn) | 19.1 µM |
| CC1=NN(c2ccc(S(=O)(=O)O)cc2C)C(=O)C1 | 6.31 µM |
| CCCc1[nH]nc2c1C(c1ccc(OC)cc1OC)C(C#N)=C(N)O2 (stereo not drawn) | 32.3 µM |
| COc1ccc(OCc2cc(C(=O)N3CCCC(OC)C3)no2)c2ccccc12 (stereo not drawn) | > 38 µM (inactive) |
| COc1ccc(CN(CCC(c2ccccc2)c2ccc(OC(C)C)cc2)C(=O)CCl)cc1OC (stereo not drawn) | 0.569 µM |

| SMILES | AC50 |
| --- | --- |
| CC(C)S(=O)(=O)C1=NSC2=NC(=O)/C(=C\c3ccc(OC(=O)c4ccco4)cc3)C(=N)N21 | 30.6 µM |
| CCCn1c(=O)[nH]c(=O)c2c1nc(-c1ccc(OC(F)F)c(OC)c1)n2CCOC | > 38 µM (inactive) |
| CC(=O)Nc1cccc(NC(=O)CSc2ncc(C(=O)Nc3ccccc3)c(=O)n2C)c1 | > 38 µM (inactive) |
| COc1ccccc1-c1cc(C(F)(F)F)nc(S(=O)(=O)CCCC(=O)N2CCCCC2C)n1 (stereo not drawn) | > 38 µM (inactive) |
| Cn1c(SCC(=O)NCC2CCCO2)ncc(C(=O)Nc2ccc(F)cc2)c1=O (stereo not drawn) | 7.58 µM |
| CSc1nc(O)c(Nc2cccc(Cl)c2)c(=O)[nH]1 | > 38 µM (inactive) |
| COc1ccc(OC)c(NC(=O)Cc2ccc(NC3=NC4CS(=O)(=O)CC4S3)cc2)c1 (stereo not drawn) | > 38 µM (inactive) |
| CCN(Cc1ccc(OC)c(F)c1)C(=O)CCl | 11.9 µM |
| Cc1ccc(NC(=O)CSc2ncnc3ccccc23)cc1S(=O)(=O)N1CCCCCC1 | 30.2 µM |
| CCCCCn1c(NC(=O)c2ccco2)c(S(=O)(=O)c2ccc(C)cc2)c2nc3ccccc3nc21 | > 38 µM (inactive) |
| O=C(O)CC1OCC=C2CN3CCC45C6=CC(=O)C(=O)C([N+](=O)[O-])=C6NC4C1C2CC35 (stereo not drawn) | 32.5 µM |
| Cc1[nH][nH]c(=O)c1C(c1c(C)[nH][nH]c1=O)c1cn(Cc2ccccc2Cl)c2ccccc12 | 1.68 µM |
| Cc1nc([N+](=O)[O-])c(Sc2nc3ccccc3[nH]2)n1Cc1ccccc1 | > 38 µM (inactive) |
| COC(=O)c1ccccc1S(=O)(=O)N1CCC(NC(=O)c2ccccc2)CC1 | > 38 µM (inactive) |
| Cc1cc(C)cc(Cn2ncc(Cl)c(Cl)c2=O)c1 | 1.38 µM |
| FC(F)(F)c1ccc(C2[C@H]3CN(Cc4cccnc4)[C@H](c4ccccc4)C34CC2(c2cccnc2)C4)cc1 (stereo partly drawn) | 5.51 µM |
| O=C(CCl)Nc1cccc(S(=O)(=O)N2CCCCCC2)c1 | > 38 µM (inactive) |
| CCOC(=O)Cn1cc(/C=N/NC(=O)CC#N)c2ccccc21 | > 38 µM (inactive) |
| O=C(Cc1ccccc1)c1c[nH]c(C(=O)C(Cl)(Cl)Cl)c1 | 38.1 µM |
| CC1=NNC(=O)C1C(c1ccccc1)C(C#N)C#N (stereo not drawn) | > 38 µM (inactive) |
| CCOC(=O)c1oc2nc(CC(C)C)c3c(c2c1N)CCC3 | > 38 µM (inactive) |
| COc1ccc(-n2c3nc4ccccc4nc3c3c(=N)oc(C)nc32)cc1 | > 12 µM (inactive) |
| CC1=NN(Cc2ccccc2)C(=O)C1C(c1ccncc1)C(C#N)C#N (stereo not drawn) | > 38 µM (inactive) |
| O=C(C1=C(c2ccccc2)C(=O)c2ccccc2C1=O)c1ccccc1 | 3.45 µM |
| Cc1ccc2nc(-c3cccs3)oc(=O)c2c1 | > 38 µM (inactive) |
| CC1=NNC(=O)/C1=C\c1cn(-c2ccccc2)nc1-c1ccc(F)cc1 | 12 µM |
